Reference: paper PMC10998594, “Structural and mechanistic basis of the central energy-converting methyltransferase complex of methanogenesis” (Proceedings of the National Academy of Sciences of the …, 2024)

Biological target: T1, MtrABCDEFG; Mtr(ABCDEFG)3; N5-methyl-tetrahydromethanopterin: coenzyme M methyltransferase core complex (Methanothermobacter marburgensis, UniProt P80183+P80185+P80186)
T1 construct: gene mtrE; native purification from M. marburgensis membranes (DDM/LMNG); trimer of MtrABCDEFG protomers, 430 kDa; MtrH not visible; soluble MtrA domain disordered, only MtrA 178-238 seen; printed lengths MtrB 100, MtrC 267, MtrD 233, MtrE 295, MtrF 68, MtrG 86; with Tetrahydromethanopterin S-methyltransferase subunit A; Tetrahydromethanopterin S-methyltransferase subunit B; Tetrahydromethanopterin S-methyltransferase subunit F; Tetrahydromethanopterin S-methyltransferase subunit G
T1 sequence (P80183 whole entry, looked up, the tested form may be a part): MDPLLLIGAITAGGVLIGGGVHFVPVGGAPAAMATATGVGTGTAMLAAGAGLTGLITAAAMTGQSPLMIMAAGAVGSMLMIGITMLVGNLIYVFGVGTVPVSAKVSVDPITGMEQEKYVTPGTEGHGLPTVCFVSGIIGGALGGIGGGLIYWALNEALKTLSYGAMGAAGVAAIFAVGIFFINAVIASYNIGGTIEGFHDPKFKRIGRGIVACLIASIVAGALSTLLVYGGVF
T1 sequence (P80185 whole entry, looked up, the tested form may be a part): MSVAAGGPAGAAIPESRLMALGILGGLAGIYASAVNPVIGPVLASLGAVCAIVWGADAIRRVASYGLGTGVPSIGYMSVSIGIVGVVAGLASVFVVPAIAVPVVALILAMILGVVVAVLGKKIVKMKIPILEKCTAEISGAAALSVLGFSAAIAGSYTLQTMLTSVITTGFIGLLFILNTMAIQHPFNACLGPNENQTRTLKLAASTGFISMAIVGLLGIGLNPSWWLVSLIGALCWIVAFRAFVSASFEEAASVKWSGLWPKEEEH
T1 sequence (P80186 whole entry, looked up, the tested form may be a part): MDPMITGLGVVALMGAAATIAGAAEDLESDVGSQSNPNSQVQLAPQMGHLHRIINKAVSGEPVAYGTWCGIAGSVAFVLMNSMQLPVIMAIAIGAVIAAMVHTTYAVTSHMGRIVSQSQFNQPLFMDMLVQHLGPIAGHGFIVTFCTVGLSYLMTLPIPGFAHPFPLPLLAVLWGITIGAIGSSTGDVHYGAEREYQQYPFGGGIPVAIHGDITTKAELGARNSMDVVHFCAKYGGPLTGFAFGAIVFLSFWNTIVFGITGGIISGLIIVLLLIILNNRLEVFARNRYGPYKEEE
Assay: cryo-EM structure, […] A
Assay type: binding
Settings: 2 mM CoM, pH 7, 80 mM NaCl; site at wall of MtrCDE cavity (MtrE R113, N38; MtrC N188); two partially occupied conformations; putative assignment

`O=S(=O)(O)CCS` [CoM] was tested, and the “cryo-EM structure, 2.39 A” value was “revealed the CoM binding site at the wall of the MtrCDE cavity”.
